Columns and labels:
in vivo = details: Wistar, rat, po, 5 mg/kg
Protocol: Test substance (Vitamin D3 fortified aqueous composition) and standard drug cholecalciferol (Vitamin D3) was administered by oral route at the dose of 5 mg/kg body weight to Rats as shown in Table 8.
After oral administration of the test substance and the standard drug, 500 μL of blood sample was collected in EDTA containing tubes at different time intervals of 0, ½, 1, 2, 4, 8, 12, 24 and 48 hours.
The plasma was separated from blood samples for bioanalysis and pharmacokinetic profiling was performed using LC-MS/MS method for the quantification of vitamin D3 in Rat plasma.
The area under the plasma drug concentration-time curve (AUC) was calculated which reflects the actual body exposure to drug after administration of a dose of the drug.

[1] = Volume of distribution test; assay type: in vivo, Wistar rats; details: oral 5 mg/kg
Protocol: The volume of distribution (Vd) test was done to check the ability of Vitamin D3 nanogels/nanoparticles to distribute through different body fluid compartments. Apparent volume of distribution (Vd) was calculated by dividing the amount of the nanogel/nanoparticles and the standard drug administered on the plasma concentration as shown in Table 11.

C=C1CC[C@H](O)C/C1=C/C=C1\CCC[C@]2(C)[C@@H]([C@H](C)CCCC(C)C)CC[C@@H]12 [Standard vitamin D3, cholecalciferol]
AUC at 0 h (in vivo): 20 ng·h/mL
AUC at 0.5 h (in vivo): 43.3 ng·h/mL
AUC at 1 h (in vivo): 41.7 ng·h/mL
AUC at 2 h (in vivo): 106 ng·h/mL
AUC at 4 h (in vivo): 289 ng·h/mL
AUC at 8 h (in vivo): 1180 ng·h/mL
AUC at 12 h (in vivo): 3010 ng·h/mL
AUC at 24 h (in vivo): 4060 ng·h/mL
AUC at 48 h (in vivo): 2910 ng·h/mL
AUC(0-t) (in vivo): 11700 ng·h/mL
concentration at 0 h (in vivo): 1.66 ± 1.66 ng/mL
concentration at 0.5 h (in vivo): 4.16 ± 2.17 ng/mL
concentration at 1 h (in vivo): 3.7 ± 1.98 ng/mL
concentration at 2 h (in vivo): 13.4 ± 4.87 ng/mL
concentration at 4 h (in vivo): 68.8 ± 22.5 ng/mL
concentration at 8 h (in vivo): 284 ± 82 ng/mL
concentration at 12 h (in vivo): 767 ± 92.5 ng/mL
concentration at 24 h (in vivo): 1040 ± 123 ng/mL
concentration at 48 h (in vivo): 744 ± 33.6 ng/mL
Volume of distribution (Vd) ([1]; 0 Hr): 333.3 ± 333.3 L/kg
Volume of distribution (Vd) ([1]; 0.5 Hr): 548.8 ± 285.8 L/kg
Volume of distribution (Vd) ([1]; 1 Hr): 632.7 ± 339.6 L/kg
Volume of distribution (Vd) ([1]; 2 Hr): 465.9 ± 129.3 L/kg
Volume of distribution (Vd) ([1]; 4 Hr): 96.22 ± 25.47 L/kg
Volume of distribution (Vd) ([1]; 8 Hr): 20.25 ± 4.58 L/kg
Volume of distribution (Vd) ([1]; 12 Hr): 6.73 ± 0.89 L/kg
Volume of distribution (Vd) ([1]; 24 Hr): 4.98 ± 0.67 L/kg
Volume of distribution (Vd) ([1]; 48 Hr): 6.74 ± 0.31 L/kg
